Results taken from US9302999B2, “Substituted triazoles as herbicides” (E. I. DU PONT DE NEMOURS AND COMPANY, priority 2012, dated 2016).

What was measured:
[1] = tested on: surinam grass (Brachiaria decumbens); test: Test F pre-/postemergence: surinam grass; assay type: in vivo; settings: Preemergence
Summary of the method: (§1)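 Preemergence treatment of seeds sown in silt loam soil, and postemergence treatment of plants 2–18 cm tall (1- to 4-leaf stage), with compounds in non-phytotoxic solvent plus surfactant. Greenhouse 14–21 days, then visual rating versus controls on 0–100 scale (100 = complete control).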

[2] = tested on: crabgrass, Brazil (Brazilian crabgrass, Digitaria horizontalis); test: Test F pre-/postemergence: crabgrass, Brazil; assay type: in vivo
Summary of the method: as §1

[3] = tested on: foxtail, green (green foxtail Setaria viridis); test: Test F pre-/postemergence: foxtail, green; assay type: in vivo; settings: Preemergence
Summary of the method: as §1

[4] = tested on: arrowleaf sida (Sida rhombifolia); test: Test F pre-/postemergence: arrowleaf sida; assay type: in vivo
Summary of the method: as §1

[5] = tested on: ryegrass, Italian (Italian ryegrass, Lolium multiflorum); test: Test F pre-/postemergence: ryegrass, Italian; assay type: in vivo
From the text: (§2) Seeds of plant species selected from corn (Zea mays), soybean (Glycine max), velvetleaf (Abutilon theophrasti), lambsquarters (Chenopodium album), poinsettia, wild (wild poinsettia, Euphorbia heterophylla), pigweed, palmer (palmer pigweed, Amaranthus palmeri), waterhemp (common waterhemp, Amaranthus rudis), surinam grass (Brachiaria decumbens), crabgrass, Brazil (Brazilian crabgrass, Digitaria horizontalis), panicum, fall (fall panicum Panicum dichotomiflorum), crabgrass, large (large crabgrass, Digitaria sanguinalis), foxtail, giant (giant foxtail, Setaria faberii), foxtail, green (green foxtail Setaria viridis), goosegrass (Eleusine indica), ragweed (common ragweed, Ambrosia elatior), barnyardgrass (Echinochloa crus-galli), sandbur (southern sandbur, Cenchrus echinatus), arrowleaf sida (Sida rhombifolia), ryegrass, Italian (Italian ryegrass, Lolium multiflorum), dayflower, VA (Virginia (VA) dayflower, Commelina virginica), field bindweed (Convolvulus arvensis), cocklebur (common cocklebur, Xanthium strumarium), morningglory (Ipomoea coccinea), nightshade (eastern black nightshade, Solanum ptycanthum), kochia (Kochia scoparia), nutsedge, yellow (yellow nutsedge, Cyperus esculentus), johnsongrass (Sorghum halepense), smartweed (ladysthumb smartweed, Polygonum persicaria), and beggarticks (hairy beggarticks, Bidens pilosa), were planted into a silt loam soil and treated preemergence with test chemicals formulated in a non-phytotoxic solvent mixture which included a surfactant. At the same time, plants selected from these crop and weed species and also pigweed (Amaranthus retroflexus), waterhemp_RES1 (ALS/Triazine resistant common waterhemp, Amaranthus rudis) and waterhemp_RES2 (ALS/HPPD resistant common waterhemp, Amaranthus rudis) were planted in pots containing a planting medium comprising spaghnum peat moss, vermiculite, wetting agent and starter nutrients treated with postemergence applications of some of the test chemicals formulated in the same manner. Plants ranged in height from 2 to 18 cm for postemergence treatments (1- to 4-leaf stage).
(§3) Treated plants and controls were maintained in a greenhouse for 14 to 21 days, after which time all species were compared to controls and visually evaluated. Plant response ratings, summarized in Table E, are based on a scale of 0 to 100 where 0 is no effect and 100 is complete control. A dash (-) response means no test result.

[6] = tested on: dayflower, VA (Virginia (VA) dayflower, Commelina virginica); test: Test F pre-/postemergence: dayflower, VA; assay type: in vivo
From the text: as §2, §3

[7] = tested on: nightshade (eastern black nightshade, Solanum ptycanthum); test: Test F pre-/postemergence: nightshade; assay type: in vivo; settings: Preemergence
From the text: as §2, §3

[8] = tested on: Waterhemp; test: Test C preemergence: waterhemp; assay type: in vivo, Amaranthus rudis; settings: 125 g ai/ha, scale 0 to 100, 0 no effect, 100 complete control
[9] = 16 g ai/ha, scale 0 to 100 (0 no effect, 100 complete control)
[10] = 31 g ai/ha, scale 0 to 100 (0 no effect, 100 complete control)
[11] = Preemergence, 16 g ai/ha, scale 0 to 100 (0 no effect, 100 complete control)
[12] = Preemergence, 31 g ai/ha, scale 0 to 100 (0 no effect, 100 complete control)
[13] = Preemergence, 62 g ai/ha, scale 0 to 100
[14] = Preemergence, 125 g ai/ha, scale 0 to 100
[15] = Preemergence, 250 g ai/ha, scale 0 to 100
[16] = 4 g ai/ha, scale 0 to 100, 0 no effect, 100 complete control
[17] = 8 g ai/ha, scale 0 to 100, 0 no effect, 100 complete control
[18] = Postemergence, 4 g ai/ha, scale 0 to 100
[19] = Postemergence, 8 g ai/ha, scale 0 to 100
[20] = Postemergence, 16 g ai/ha, scale 0 to 100
[21] = Postemergence, 31 g ai/ha, scale 0 to 100
[22] = Postemergence, 62 g ai/ha, scale 0 to 100
[23] = Preemergence, 4 g ai/ha, scale 0 to 100, 0 no effect, 100 complete control
[24] = Preemergence, 8 g ai/ha, scale 0 to 100, 0 no effect, 100 complete control

CCCc1nn(-c2ccc(F)cc2)nc1Cc1ccnc(C(F)(F)F)c1 [Compound 153]
Plant response rating, Surinam Grass [1, 9]: 0 | Plant response rating, Surinam Grass [1, 10]: 5 | Plant response rating, Surinam Grass ([1]; 125 g ai/ha, scale 0 to 100): 75 | Plant response rating, Surinam Grass ([1]; 250 g ai/ha, scale 0 to 100): 98 | Plant response rating, Crabgrass, Brazil [2, 11]: 98 | Plant response rating, Crabgrass, Brazil [2, 12]: 100 | Plant response rating, Crabgrass, Brazil [2, 13]: 100 | Plant response rating, Crabgrass, Brazil [2, 14]: 100 | Plant response rating, Crabgrass, Brazil [2, 15]: 100 | Plant response rating, Foxtail, Green [3, 9]: 50 | Plant response rating, Foxtail, Green [3, 10]: 75 | Plant response rating, Foxtail, Green ([3]; 62 g ai/ha, scale 0 to 100): 100 | Plant response rating, Foxtail, Green ([3]; 125 g ai/ha, scale 0 to 100): 100 | Plant response rating, Foxtail, Green ([3]; 250 g ai/ha, scale 0 to 100): 100 | Plant response rating, Arrowleaf Sida [4, 11]: 5 | Plant response rating, Arrowleaf Sida [4, 12]: 5 | Plant response rating, Arrowleaf Sida [4, 13]: 25 | Plant response rating, Arrowleaf Sida [4, 14]: 25 | Plant response rating, Arrowleaf Sida [4, 15]: 65 | Plant response rating, Ryegrass, Italian [5, 11]: 5 | Plant response rating, Ryegrass, Italian [5, 12]: 5 | Plant response rating, Ryegrass, Italian [5, 14]: 65 | Plant response rating, Ryegrass, Italian [5, 15]: 95 | Plant response rating, Dayflower, VA [6, 11]: 5 | Plant response rating, Dayflower, VA [6, 12]: 10 | Plant response rating, Dayflower, VA [6, 13]: 40 | Plant response rating, Dayflower, VA [6, 14]: 80 | Plant response rating, Dayflower, VA [6, 15]: 95 | Plant response rating, Nightshade [7, 9]: 50 | Plant response rating, Nightshade [7, 10]: 50 | Plant response rating, Nightshade ([7]; 125 g ai/ha, scale 0 to 100): 100 | Plant response rating, Nightshade ([7]; 250 g ai/ha, scale 0 to 100): 100 | Plant response rating, Waterhemp [8]: 100

Cc1nn(-c2ccc(C(F)(F)F)c(F)c2)nc1Cc1ccnc(C(F)(F)F)c1 [Compound 162]
Plant response rating, Surinam Grass [1, 16]: 0 | Plant response rating, Surinam Grass [1, 17]: 0 | Plant response rating, Crabgrass, Brazil [2, 18]: 15 | Plant response rating, Crabgrass, Brazil [2, 19]: 15 | Plant response rating, Crabgrass, Brazil [2, 20]: 15 | Plant response rating, Crabgrass, Brazil [2, 21]: 20 | Plant response rating, Crabgrass, Brazil [2, 22]: 30 | Plant response rating, Crabgrass, Brazil [2, 23]: 0 | Plant response rating, Crabgrass, Brazil [2, 24]: 100 | Plant response rating, Crabgrass, Brazil [2, 11]: 100 | Plant response rating, Crabgrass, Brazil [2, 12]: 100 | Plant response rating, Crabgrass, Brazil [2, 13]: 100 | Plant response rating, Foxtail, Green [3, 16]: 0 | Plant response rating, Foxtail, Green [3, 17]: 15 | Plant response rating, Foxtail, Green [3, 9]: 80 | Plant response rating, Foxtail, Green [3, 10]: 100 | Plant response rating, Foxtail, Green ([3]; 62 g ai/ha, scale 0 to 100): 100 | Plant response rating, Arrowleaf Sida [4, 18]: 10 | Plant response rating, Arrowleaf Sida [4, 19]: 25 | Plant response rating, Arrowleaf Sida [4, 20]: 30 | Plant response rating, Arrowleaf Sida [4, 21]: 35 | Plant response rating, Arrowleaf Sida [4, 22]: 60 | Plant response rating, Arrowleaf Sida [4, 23]: 0 | Plant response rating, Arrowleaf Sida [4, 24]: 0 | Plant response rating, Arrowleaf Sida [4, 11]: 0 | Plant response rating, Arrowleaf Sida [4, 12]: 0 | Plant response rating, Arrowleaf Sida [4, 13]: 0 | Plant response rating, Ryegrass, Italian [5, 18]: 0 | Plant response rating, Ryegrass, Italian [5, 19]: 0 | Plant response rating, Ryegrass, Italian [5, 20]: 0 | Plant response rating, Ryegrass, Italian [5, 21]: 0 | Plant response rating, Ryegrass, Italian [5, 22]: 0 | Plant response rating, Ryegrass, Italian [5, 23]: 0 | Plant response rating, Ryegrass, Italian [5, 24]: 0 | Plant response rating, Ryegrass, Italian [5, 11]: 35 | Plant response rating, Ryegrass, Italian [5, 12]: 80 | Plant response rating, Dayflower, VA [6, 18]: 5 | Plant response rating, Dayflower, VA [6, 19]: 15 | Plant response rating, Dayflower, VA [6, 20]: 20 | Plant response rating, Dayflower, VA [6, 21]: 20 | Plant response rating, Dayflower, VA [6, 22]: 25 | Plant response rating, Dayflower, VA [6, 23]: 0 | Plant response rating, Dayflower, VA [6, 24]: 35 | Plant response rating, Dayflower, VA [6, 11]: 35 | Plant response rating, Dayflower, VA [6, 12]: 35 | Plant response rating, Dayflower, VA [6, 13]: 65 | Plant response rating, Nightshade [7, 16]: 0 | Plant response rating, Nightshade [7, 17]: 0 | Plant response rating, Nightshade [7, 9]: 5 | Plant response rating, Waterhemp [8]: 100

CCOc1nn(-c2ccc(Br)cc2)nc1Cc1ccnc(C(F)(F)F)c1 [Compound 189]
Plant response rating, Waterhemp [8]: 100
